Patent publication US20130158112A1, “COMPOSITIONS AND METHODS FOR INHIBITING BETA AMYLOID SECRETION” (priority 2011, published 2013)
Like-named read-outs stand apart in the source and are kept apart here.

What was measured:
H4βAPP695 wt cells = assay: Cytotoxicity by total cell protein content (BCA) of H4βAPP695 wt cells; details: cytotoxicity
Aβ secretion = assay: Secreted total Aβ ELISA in conditioned media of H4βAPP695 wt cells; format: cell-based, human; details: for inhibition at 10 µM / inhibition at 30 µM: Homo sapiens, 24 h, H4βAPP695 wt cells; for inhibition at 30 µM: read-out: Total Aβ (% decrease) 30 μM Mean; for Aβ secretion inhibiting activity (structure activity summary): in words
Method: H4βAPP695 wt cells, a human […] cell line stably transfected with a wtβAPP695 expression vector construct under the control of a CMV promoter (kindly provided by Dr. Chris Eckman from Mayo Clinic, Florida) were cultured as previously described. Twenty-four hours before drug treatment, the media was replaced with serum-free media. Cells were then incubated with drugs (dissolved in DMSO) or vehicle for 24 h for collection of conditioned media and cell lysates. For the PKC inhibitors experiment, three inhibitors were treated 30 min prior to drug challenge. Primary cortical neurons were prepared from embryonic day 18 APP and presenilin 1 (APPswe, PSEN1dE9) transgenic mice on the C57BL/6 genetic background (Jackson Laboratories, strain no. 5864) as previously described. THLE-3 human hepatoma cells (from ATCC) were plated in 24-well plates that were precoated with 10 μg/mL bovine serum albumin, 10 μg/mL fibronectin, and 30 μg/mL bovine type I collagen. The cells were grown in BEGM media (Clonetics) until confluent and treated with drugs at 20 μM for 24 h. This conditioned media was harvested, diluted 1:1 in serum-free medium, and incubated with H4βAPP695 wt cells for 24 h prior to analysis of secreted Aβ, which was compared to the effect of 10 μM drug treatments without prior incubation with the THLE-3 cells. Caco-2 cells (ATCC) were plated in 12-well plates with Transwell inserts (Costar) at 70000 cells per well and grown for 21 days. The media volume of the apical and basal chambers was 0.5 and 1.5 mL, respectively. Transepithelial resistance was measured in each well and found to be >160 Ω/cm^2. Drugs at 40 μM and 20 μg/mL of lucifer yellow were added in serum-free medium to the apical chamber. Four hours later, the basal chamber media was harvested and used to measure lucifer yellow fluorescence to confirm monolayer integrity as well as for treatment of H4βAPP695 wt cells for 24 h prior to analysis of secreted Aβ, which was compared to the effect of direct addition of 10 μM of the corresponding drug.

[1] = read-out: Total Aβ (% decrease) 10 μM Mean
[2] = relative to vehicle treated control cells, read-out: % β Decrease

SMILES | Cell protein (% decrease) 10 μM Mean (H4βAPP695 wt cells) [%] | Cell protein (% decrease) 30 μM Mean (H4βAPP695 wt cells) | inhibition at 10 µM (Aβ secretion; [1]) [%] | inhibition at 30 µM (Aβ secretion) [%] | Aβ secretion inhibiting activity (structure activity summary) (Aβ secretion) | inhibition at 10 µM (Aβ secretion; [2]) [%]
O=C(NCCSCc1cccc(O)c1O)c1c(Cl)cccc1Cl [Compound 58, 2,6-Dichloro-N-[2-(2,3-dihydroxy-benzylsulfanyl)-ethyl]-benzamide] | −4.8 | 14% | -4.3 | 33.1 | lost activity | –
N=C(NO)c1cccc(CSCCNC(=O)c2c(Cl)cccc2Cl)c1 [Compound 39, 2,6-Dichloro-N-(2-[3-(N-hydroxycarbamimidoyl)-benzylsulfanyl]-ethyl)-benzamide] | 9.2 | 5.9% | -1.5 | 1.6 | did not yield good activity | –
Oc1c(Cl)cc(Cl)cc1/C=N/CCSCc1ccccc1Cl [Compound 23] | – | – | – | – | – | 5.3
COCCCNC(=O)c1c(Cl)cccc1Cl [Compound 8] | – | – | – | – | – | 6.9
O=C(NCCCCNC(=O)c1ccccc1F)c1ccccc1F [Compound 25] | – | – | – | – | – | 0.2
O=C(NCCSCc1ccccc1)c1ccccc1 [Compound 64, N-(2-Benzylsulfanyl-ethyl)-benzamide] | 0.7 | −4.1% | -5.7 | 5.5 | – | –
O=C(NCCSCc1ccc(Cl)c(Cl)c1)c1ccc(Cl)cc1Cl [Compound 6] | – | – | – | – | – | 4.3
O=C(NCCS(=O)(=O)Cc1ccc(F)cc1)c1c(F)cccc1Cl [Compound 24] | – | – | – | – | – | 39.2
O=C(NCCSCc1ccc(Cl)cc1)c1ccc(Cl)cc1Cl [Compound 2] | – | – | – | – | – | 5.3
O=C(NCCSCc1ccc(Cl)c(Cl)c1)c1ccccc1Cl [Compound 5] | – | – | – | – | – | 0.7
COc1cccc(CS(=O)(=O)CCNC(=O)c2c(Cl)cccc2Cl)c1 [Compound 30, 2,6-dichloro-N-[2-(3-methoxy-phenylmethanesulfonyl)-ethyl]-benzamide] | 1.2 | 8.9% | 5.3 | 4.9 | No tested substitutions in the linker region were well tolerated | –
Cc1cccc(C)c1C(=O)NCCSCc1cccc(Cl)c1 [Compound 75, N-[2-(3-chloro-benzylsulfanyl)-ethyl]-2,6-dimethyl-benzamide] | 0.9 | −9.4% | 29.5 | 51.6 | not well tolerated | –
COc1cccc(C[S+]([O-])CCNC(=O)c2c(Cl)cccc2Cl)c1 (stereo not drawn) [Compound 32, 2,6-dichloro-N-[2-(3-methoxy-phenylmethanesulfinyl)-ethyl]-benzamide] | 1.6 | 9.2% | -13.6 | -15.8 | No tested substitutions in the linker region were well tolerated | –
O=C(NCCNC(=O)c1c(Cl)cccc1Cl)c1c(Cl)cccc1Cl [Compound 13] | – | – | – | – | – | 7.6
O=C(Cc1c(Cl)cccc1Cl)NCCSCc1cccc(Cl)c1 [Compound 78, N-[2-(3-chloro-benzylsulfanyl)-ethyl]-2-(2,6-dichloro-phenyl)-acetamide] | −1.3 | −.07% | 6.7 | 13.5 | No tested substitutions in the linker region were well tolerated | –
